Where a SMILES comes first, the peptide text is derived from it. Where no end group is shown, it is not given here. The star is where a group is joined. X3 = CC[C@H](C)[C@H](NC(=O)[C@@H](NC[C@H](CC(C)C)N*)C(C)C)C(=O)N[C@@H](Cc1ccc(O)cc1)C(=O)O
Each compound was assayed against T1, human renin (Homo sapiens, UniProt P00797) (assay: human renin-renin substrate reaction in vitro; radioimmunoassay of angiotensin-I released in human plasma). Conditions: Table 5; human renin-renin substrate reaction in vitro; read-out: IC50.
T1 construct: angiotensin-I released from human renin substrate by human resin in human plasma; from tissue; host or cells: human plasma (containing EDTA)
T1 sequence (P00797 67-406): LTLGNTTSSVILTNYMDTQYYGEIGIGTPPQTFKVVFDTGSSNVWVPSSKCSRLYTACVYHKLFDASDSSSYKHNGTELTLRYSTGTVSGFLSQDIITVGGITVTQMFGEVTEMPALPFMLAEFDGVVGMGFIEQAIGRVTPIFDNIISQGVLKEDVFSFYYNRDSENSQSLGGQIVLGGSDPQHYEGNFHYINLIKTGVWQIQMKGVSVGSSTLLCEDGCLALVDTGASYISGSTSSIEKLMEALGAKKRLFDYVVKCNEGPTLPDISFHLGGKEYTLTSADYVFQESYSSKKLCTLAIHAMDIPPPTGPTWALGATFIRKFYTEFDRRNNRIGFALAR
Format: biochemical
Excerpt: Preliminary activity test results in the human […] substrate reaction in vitro are given, with comparative figures for the tetrapeptide analogue (III). […] The test results given herein are based on the methods described by J. A. Miller et al in Clinica Chimica Acta (1980) 101 5-15 and K. Poulsen and J. Jorgensen in J. Clin. Endocrinol. Metab. (1974) 39 816, and is based on the measurement, by radioimmunoassay, of angiotensin-I released from human renin substrate by human resin in human plasma. The inhibitor is dissolved in 0.01N HCl (10 μl) and added to hmman plasma (75 μl) containing EDTA, and angiotensin-I antibody (15 μl) in 3M-Tris/HCl buffer (pH 6.9). After incubation at 37° C. for 0-120 minutes, the enzymic reaction is quenched by the addition of ice-cold 0.25M Tris/HCl buffer (pH 7.4) containing 0.01% of bovine serum albumin. 125I-labelled angiotensin-I is added, followed by equilibration at 4° C. for 48 hours. Free and bound ligand are separated by the addition of dextrancoated charcoal, and the amount of bound radio-ligand determined in a gamma counter.

Row | IC50 | Compound
1 | 400 µM | HPFHLVIH [corresponding nonisosteric peptide, reference compound]

Same assay, conditions: Table I; human renin in human plasma; read-out: IC50, μM human

Row | Compound | IC50
2 | CC[C@H](C)[C@H](NC(=O)[C@@H](NC[C@H](CC(C)C)NC(=O)[C@H](Cc1c[nH]cn1)NC(=O)[C@H](Cc1ccccc1)NC(=O)[C@@H]1CCCN1C(=O)[C@H](N)Cc1c[nH]cn1)C(C)C)C(=O)N[C@@H](Cc1c[nH]cn1)C(=O)N[C@H](CCCCN)C(=O)O [XXXIX] | 0.2 µM
3 | CC[C@H](C)[C@H](NC(=O)[C@@H](NC[C@H](CC(C)C)NC(=O)[C@H](Cc1c[nH]cn1)NC(=O)[C@H](Cc1ccccc1)NC(=O)[C@@H]1CCCN1C(C)=O)C(C)C)C(=O)N[C@@H](Cc1c[nH]cn1)C(=O)N[C@H](CCCCN)C(=O)O [XXXVII] | 0.6 µM
4 | CC[C@H](C)[C@H](NC(=O)[C@@H](NC[C@H](CC(C)C)NC(=O)[C@H](Cc1c[nH]cn1)NC(=O)[C@H](Cc1ccccc1)NC(=O)[C@@H]1CCCN1C(=O)[C@H](Cc1c[nH]cn1)NC(=O)[C@@H]1CCCN1)C(C)C)C(=O)N[C@@H](Cc1ccc(O)cc1)C(=O)NCCCCCN [XX] | 3 µM

Further lines, results first:

Row | IC50 | Compound
5 | 0.06 µM | CC[C@H](C)[C@H](NC(=O)[C@@H](NC[C@H](CC(C)C)NC(=O)[C@H](Cc1c[nH]cn1)NC(=O)[C@H](Cc1ccccc1)NC(=O)[C@@H]1CCCN1C(=O)[C@@H](N)Cc1c[nH]cn1)C(C)C)C(=O)N[C@@H](Cc1c[nH]cn1)C(=O)N[C@@H](CCCCN)C(=O)O [XXXI]
6 | 0.1 µM | CC[C@H](C)[C@H](NC(=O)[C@@H](NC[C@H](CC(C)C)NC(=O)[C@H](Cc1c[nH]cn1)NC(=O)[C@H](Cc1ccccc1)NC(=O)[C@@H]1CCCN1C(=O)[C@H](Cc1c[nH]cn1)NC(=O)[C@@H]1CCCN1)C(C)C)C(=O)N[C@@H](Cc1c[nH]cn1)C(=O)N[C@H](CCCCN)C(=O)O [XXXVIII]
7 | 0.048 µM | CC[C@H](C)[C@H](NC(=O)[C@@H](NC[C@H](CC(C)C)NC(=O)[C@H](Cc1c[nH]cn1)NC(=O)[C@H](Cc1ccccc1)NC(=O)[C@@H]1CCCN1C(=O)[C@H](Cc1c[nH]cn1)NC(=O)[C@@H]1CCCN1)C(C)C)C(=O)N[C@@H](Cc1ccc(O)cc1)C(=O)O [XXX] (H-PHPFH-X3)
